Measurements from PMC8300687, “A Fine-Tuned Lipophilicity/Hydrophilicity Ratio Governs Antibacterial Potency and Selectivity of Bifurcated Halogen Bond-Forming NBTIs” (Antibiotics, 2021).
Converted amounts (≈) assume the structure as drawn.

How the values were obtained:
S. aureus DNA gyrase = biological target: T1, S. aureus DNA gyrase (Staphylococcus aureus, UniProt P20831); assay: biochemical; type: biochemical; details: for LE DNA Gyrase S. aureus: LE = (1.37/HA) × pIC50; for IC50: fluorescence plate supercoiling assay, mean of two to four measurements
T1 construct: purchased Inspiralis (Norwich, UK)
Method: (§1) A Gyrase Supercoiling High Throughput Plate assay kit, purchased from Inspiralis (Norwich. UK) was used to determine IC50 values of compounds on S. aureus and E. coli. […] Biotinylated oligonucleotide in wash buffer was immobilized onto the wells, and the excess oligonucleotide was washed off with wash buffer and ultrapure water. […] The reactions were stopped by adding the TF buffer (50 mM NaOAc (pH 4.7), 50 mM NaCl, and 50 mM MgCl2) to allow the triplex formation (biotin-oligonucleotide-plasmid) for additional 30 min. Afterward, the unbound plasmid was washed off using TF buffer, and the solution of Promega Diamond dye in T10 buffer (10 mM Tris-HCl (pH 8.0), 1 mM EDTA) was added. […] IC50 value represents the mean of two to four independent measurements.

E. coli DNA gyrase = biological target: T2, E. coli DNA gyrase (Escherichia coli, UniProt P0AES4); assay: Gyrase Supercoiling High Throughput Plate assay, E. coli; type: biochemical; details: for LE DNA Gyrase E. coli: LE = (1.37/HA) × pIC50
T2 construct: purchased Inspiralis (Norwich, UK)
Method: as §1

E. coli Topo IV = biological target: T3, E. coli Topo IV (Escherichia coli, UniProt P0AFI2); assay: Topo IV Relaxation High Throughput Plate assay, E. coli; type: biochemical; details: for LE Topo IV E. coli: LE = (1.37/HA) × pIC50
T3 construct: purchased Inspiralis (Norwich, UK)
Method: A Topo IV Relaxation High Throughput Plate assay kit, purchased from Inspiralis (Norwich. UK) was used to determine IC50 values of compounds on S. aureus and E. coli. […] Biotinylated oligonucleotide in wash buffer was immobilized onto the wells, and the excess oligonucleotide was washed off with wash buffer and ultrapure water. 1.5 U of S. aureus or E. coli […] enzyme was incubated together with 0.75 μg of supercoiled pNO1 plasmid as a substrate in the presence of 3 μL inhibitor solution in 10% DMSO and 0.008% Tween 20 at 37 °C for 30 min in a final reaction volume of 30 μL in dilution buffer (50 mM Tris-HCl (pH 7.5), 1 mM DTT, 1 mM EDTA, 40% (w/v) glycerol for S. aureus and 40 mM HEPES, KOH (pH 7.6), 100 mM potassium glutamate, 1 mM DTT, 1 mM EDTA, and 40% (v/v) glycerol for E. coli). The reactions were stopped by adding the TF buffer (50 mM NaOAc (pH 4.7), 50 mM NaCl, and 50 mM MgCl2) to allow the triplex formation (biotin-oligonucleotide-plasmid) for additional 30 min. Afterward, the unbound plasmid was washed off using TF buffer, and the solution of Promega Diamond dye in T10 buffer (10 mM Tris-HCl (pH 8.0), 1 mM EDTA) was added. […] IC50 value represents the mean of two to four independent measurements.

Human topoisomerase IIα = biological target: T4, Human topoisomerase IIα (Homo sapiens, UniProt P11388); assay: Human topoisomerase II Alpha Relaxation High Throughput Plate assay; type: biochemical; details: 0.5 h; residual activity of the enzyme at compound concentration 10 μM, mean ± SD; read-out: Human Topo II (% RA)
T4 construct: purchased Inspiralis (Norwich, UK)
Method: A Human topoisomerase II Alpha Relaxation High Throughput Plate assay kit, purchased from Inspiralis (Norwich, UK) was used to evaluate the selectivity of compounds for the bacterial enzymes over the homologous human topoisomerase II. […] Biotinylated oligonucleotide in wash buffer was immobilized onto the wells and the excess oligonucleotide was washed off with wash buffer. […] The reactions were stopped by adding the TF buffer (50 mM NaOAc (pH 4.7), 50 mM NaCl, and 50 mM MgCl2) to allow the triplex formation (biotin-oligonucleotide-plasmid) for additional 30 min. Afterward, the unbound plasmid was washed off using TF buffer, and the solution of Promega Diamond dye in T10 buffer (10 mM Tris-HCl (pH 8.0), 1 mM EDTA) was added. […] Screening was performed at inhibitor concentrations of 10 μM. Raw data were converted to mean ± SD percentage of residual activity of the enzyme obtained by two independent measurements.

MRSA (QA-11.7) = assay: MIC broth microdilution, MRSA QA-11.7; type: cell-based, methicillin-resistant S. aureus; details: Staphylococcus aureus, 20 h, read-out: MIC MRSA (QA-11.7)
Method: (§2) Antimicrobial testing was carried out by the broth microdilution method in 96-well plate format following the Clinical and Laboratory Standards Institute (CLSI) guidelines and European Committee on Antimicrobial Susceptibility Testing (EUCAST) recommendations. Bacterial suspension of specific bacterial strain equivalent to 0.5 McFarland turbidity standard was diluted with cation-adjusted Mueller Hinton broth with TES (Thermo Fisher Diagnostic, Landsmeer, The Netherlands), to obtain a final inoculum of 10^5 CFU/mL. Compounds dissolved in DMSO and inoculum were mixed together and incubated for 18–20 h at 35 °C. Suspensions of Mycobacterium sp. were prepared into a tube of Middelbrook 7H9 broth supplemented with 5% OADC (Thermo Scientific, Trek Diagnostic Systems, West Sussex, UK) and incubated for at least 10 days. After incubation the minimal inhibitory concentration (MIC) values were determined by visual inspection as the lowest dilution of compounds showing no turbidity. Tetracycline was used as a positive control on every assay plate.

MRSA (QA-11.2) = assay: MIC broth microdilution, MRSA QA-11.2; type: cell-based, methicillin-resistant S. aureus; details: Staphylococcus aureus, 20 h, resistant to cefoxitin, chloramphenicol, clindamycin, linezolid, tetracycline, thiamulin, trimethoprim, read-out: MIC MRSA (QA-11.2)
Method: as §2

[1] = test system: S. agalactiae RDK 047 (QA-990/02); assay: MIC broth microdilution, S. agalactiae; type: cell-based; details: Streptococcus agalactiae; read-out: MIC S. agalactiae RDK 047 (QA-990/02)
Method: as §2

E. coli (QA-11.8) = assay: MIC broth microdilution, E. coli QA-11.8; type: cell-based; details: Escherichia coli, 20 h; read-out: MIC E. coli (QA-11.8)
Method: as §2

[2] = test system: A. baumannii 8C6 (GES-14); assay: MIC broth microdilution, A. baumannii; type: cell-based; details: Acinetobacter baumannii; read-out: MIC A. baumannii 8C6 (GES-14)
Method: as §2

[3] = test system: C. jejuni RDK 135 (ATCC 33560); assay: MIC broth microdilution, C. jejuni; type: cell-based; details: Campylobacter jejuni, ATCC33560; read-out: MIC C. jejuni RDK 135 (ATCC 33560)
Method: as §2

T4 sequence (P11388 whole entry): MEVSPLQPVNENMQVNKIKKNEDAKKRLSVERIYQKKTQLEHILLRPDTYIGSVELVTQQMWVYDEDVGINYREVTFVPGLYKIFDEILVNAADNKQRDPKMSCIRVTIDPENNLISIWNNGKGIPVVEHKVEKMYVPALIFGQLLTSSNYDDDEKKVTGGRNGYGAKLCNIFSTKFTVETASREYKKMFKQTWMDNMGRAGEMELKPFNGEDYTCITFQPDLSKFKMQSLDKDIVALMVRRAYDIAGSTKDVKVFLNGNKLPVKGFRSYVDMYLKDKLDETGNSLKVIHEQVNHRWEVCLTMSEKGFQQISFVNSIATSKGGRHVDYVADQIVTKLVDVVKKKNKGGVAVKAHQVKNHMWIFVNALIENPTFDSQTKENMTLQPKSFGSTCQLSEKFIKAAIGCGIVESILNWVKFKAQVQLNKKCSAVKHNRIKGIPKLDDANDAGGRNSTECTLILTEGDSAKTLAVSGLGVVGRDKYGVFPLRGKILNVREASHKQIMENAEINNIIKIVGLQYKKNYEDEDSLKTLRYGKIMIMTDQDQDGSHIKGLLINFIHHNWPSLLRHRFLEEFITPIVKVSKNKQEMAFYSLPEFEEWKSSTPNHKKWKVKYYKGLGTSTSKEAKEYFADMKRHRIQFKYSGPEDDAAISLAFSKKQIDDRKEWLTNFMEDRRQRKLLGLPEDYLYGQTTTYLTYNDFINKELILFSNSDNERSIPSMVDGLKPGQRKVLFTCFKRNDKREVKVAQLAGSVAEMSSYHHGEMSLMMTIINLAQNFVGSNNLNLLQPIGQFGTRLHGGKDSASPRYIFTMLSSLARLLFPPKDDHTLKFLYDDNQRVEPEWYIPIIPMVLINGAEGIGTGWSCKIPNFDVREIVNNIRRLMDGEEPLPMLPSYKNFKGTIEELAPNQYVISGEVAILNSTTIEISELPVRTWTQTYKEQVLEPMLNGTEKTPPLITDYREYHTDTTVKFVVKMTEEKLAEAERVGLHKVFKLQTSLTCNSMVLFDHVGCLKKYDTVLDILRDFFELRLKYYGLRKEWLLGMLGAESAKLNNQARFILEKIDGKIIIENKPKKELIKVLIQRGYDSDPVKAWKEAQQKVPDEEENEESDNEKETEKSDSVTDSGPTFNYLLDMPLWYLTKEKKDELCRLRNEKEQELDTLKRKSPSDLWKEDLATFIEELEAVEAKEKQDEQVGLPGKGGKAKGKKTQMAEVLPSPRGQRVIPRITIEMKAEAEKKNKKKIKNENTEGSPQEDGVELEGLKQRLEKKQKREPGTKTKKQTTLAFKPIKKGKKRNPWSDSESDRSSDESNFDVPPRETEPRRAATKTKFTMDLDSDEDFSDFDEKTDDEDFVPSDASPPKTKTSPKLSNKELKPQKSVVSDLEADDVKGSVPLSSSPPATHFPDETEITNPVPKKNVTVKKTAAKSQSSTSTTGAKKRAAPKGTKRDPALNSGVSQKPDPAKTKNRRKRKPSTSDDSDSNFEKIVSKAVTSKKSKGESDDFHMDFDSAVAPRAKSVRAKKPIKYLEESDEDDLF
T1 sequence (P20831 whole entry): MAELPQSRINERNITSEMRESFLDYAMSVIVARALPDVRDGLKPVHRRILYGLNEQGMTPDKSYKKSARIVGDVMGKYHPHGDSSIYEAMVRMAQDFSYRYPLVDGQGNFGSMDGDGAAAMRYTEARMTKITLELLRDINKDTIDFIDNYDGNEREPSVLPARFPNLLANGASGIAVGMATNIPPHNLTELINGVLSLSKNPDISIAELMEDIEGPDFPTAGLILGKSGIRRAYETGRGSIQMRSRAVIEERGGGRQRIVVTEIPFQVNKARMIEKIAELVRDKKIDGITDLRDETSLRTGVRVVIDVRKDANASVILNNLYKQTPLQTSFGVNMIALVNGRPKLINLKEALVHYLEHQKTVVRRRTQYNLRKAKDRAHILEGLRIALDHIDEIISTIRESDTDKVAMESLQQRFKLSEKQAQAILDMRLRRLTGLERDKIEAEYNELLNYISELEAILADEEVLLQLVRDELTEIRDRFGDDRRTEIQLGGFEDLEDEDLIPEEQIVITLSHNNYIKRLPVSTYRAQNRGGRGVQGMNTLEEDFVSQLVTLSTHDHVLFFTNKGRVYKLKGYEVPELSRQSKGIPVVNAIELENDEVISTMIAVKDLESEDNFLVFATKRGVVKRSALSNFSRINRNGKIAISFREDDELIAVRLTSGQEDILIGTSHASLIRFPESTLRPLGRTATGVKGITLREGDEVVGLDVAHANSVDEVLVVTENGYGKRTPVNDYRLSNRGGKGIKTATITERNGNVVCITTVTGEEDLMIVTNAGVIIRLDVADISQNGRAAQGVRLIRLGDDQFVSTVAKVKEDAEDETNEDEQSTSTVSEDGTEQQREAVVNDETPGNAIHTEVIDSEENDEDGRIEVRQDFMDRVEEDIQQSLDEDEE
T1 sequence (P0A0K8 whole entry partner): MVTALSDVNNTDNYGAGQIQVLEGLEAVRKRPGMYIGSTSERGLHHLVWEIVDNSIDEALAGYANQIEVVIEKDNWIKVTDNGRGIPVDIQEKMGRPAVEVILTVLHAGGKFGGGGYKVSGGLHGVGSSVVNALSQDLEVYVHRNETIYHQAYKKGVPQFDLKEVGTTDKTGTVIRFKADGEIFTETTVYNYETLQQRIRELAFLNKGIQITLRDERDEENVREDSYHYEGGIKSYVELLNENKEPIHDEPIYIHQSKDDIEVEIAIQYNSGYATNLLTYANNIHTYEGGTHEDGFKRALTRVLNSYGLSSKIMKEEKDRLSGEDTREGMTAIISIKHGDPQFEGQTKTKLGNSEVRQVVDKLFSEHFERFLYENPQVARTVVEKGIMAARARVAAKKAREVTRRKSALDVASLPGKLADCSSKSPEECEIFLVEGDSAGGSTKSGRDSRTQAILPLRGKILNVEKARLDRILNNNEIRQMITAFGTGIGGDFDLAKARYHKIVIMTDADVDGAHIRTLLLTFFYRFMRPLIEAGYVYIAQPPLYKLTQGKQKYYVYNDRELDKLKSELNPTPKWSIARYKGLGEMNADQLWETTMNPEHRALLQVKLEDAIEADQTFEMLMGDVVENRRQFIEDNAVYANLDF
T2 sequence (P0AES4 whole entry): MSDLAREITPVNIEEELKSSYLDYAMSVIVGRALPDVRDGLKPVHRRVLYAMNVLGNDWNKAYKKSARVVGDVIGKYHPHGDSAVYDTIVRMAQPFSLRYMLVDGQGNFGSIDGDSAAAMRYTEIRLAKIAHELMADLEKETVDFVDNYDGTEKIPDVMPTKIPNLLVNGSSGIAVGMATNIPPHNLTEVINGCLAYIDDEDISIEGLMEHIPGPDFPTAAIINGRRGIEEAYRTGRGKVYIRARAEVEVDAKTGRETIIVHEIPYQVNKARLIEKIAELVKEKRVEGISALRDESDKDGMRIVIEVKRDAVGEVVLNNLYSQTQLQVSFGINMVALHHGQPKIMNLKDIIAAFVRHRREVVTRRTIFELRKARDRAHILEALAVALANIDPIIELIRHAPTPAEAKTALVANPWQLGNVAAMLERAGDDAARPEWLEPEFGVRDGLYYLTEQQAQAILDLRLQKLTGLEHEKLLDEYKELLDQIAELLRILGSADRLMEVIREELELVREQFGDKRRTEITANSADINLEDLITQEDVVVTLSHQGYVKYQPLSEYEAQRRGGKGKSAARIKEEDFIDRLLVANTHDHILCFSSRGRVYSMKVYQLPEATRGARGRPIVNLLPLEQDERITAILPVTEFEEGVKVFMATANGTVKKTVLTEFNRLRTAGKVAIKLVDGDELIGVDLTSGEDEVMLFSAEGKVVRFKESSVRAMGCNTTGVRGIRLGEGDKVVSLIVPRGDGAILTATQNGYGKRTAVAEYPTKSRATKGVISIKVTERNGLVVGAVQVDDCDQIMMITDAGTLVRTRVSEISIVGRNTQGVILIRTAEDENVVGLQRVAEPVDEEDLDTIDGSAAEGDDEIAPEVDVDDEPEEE

SMILES | LE DNA Gyrase S. aureus (S. aureus DNA gyrase) | IC50 (E. coli DNA gyrase) | LE DNA Gyrase E. coli (E. coli DNA gyrase) | IC50 (E. coli Topo IV) | LE Topo IV E. coli (E. coli Topo IV) | remaining activity at 10 µM (Human topoisomerase IIα) | MIC (MRSA (QA-11.7)) | MIC (MRSA (QA-11.2)) | MIC [1] | MIC (E. coli (QA-11.8)) | MIC [2] | MIC [3] | IC50 (S. aureus DNA gyrase)
COc1ccc2nccc(CCN3CCC(NCc4ccccc4)CC3)c2n1 [Compound 11] | 0.29 | 40.6 ± 1.97 µM | 0.21 | 2040 ± 200 nM | 0.28 | 97 ± 9.58% | 8 µg/mL (≈ 21.2 µM) | 8 µg/mL (≈ 21.2 µM) | 16 µg/mL (≈ 42.5 µM) | 64 µg/mL (≈ 170 µM) | 64 µg/mL (≈ 170 µM) | 32 µg/mL (≈ 85 µM) | 
COc1ccc2nccc(CCN3CCC(NCc4ccc(F)cc4)CC3)c2n1 [Compound 12] | 0.30 | 17 ± 1.69 µM | 0.23 | 280 ± 30 nM | 0.31 | 101 ± 11.2% | 4 µg/mL (≈ 10.1 µM) | 4 µg/mL (≈ 10.1 µM) | 8 µg/mL (≈ 20.3 µM) | 16 µg/mL (≈ 40.6 µM) | 32 µg/mL (≈ 81.1 µM) | 1 µg/mL (≈ 2.53 µM) | 
COc1ccc2nccc(CCN3CCC(NCc4ccc(CO)cc4)CC3)c2n1 [Compound 16] | 0.24 | 56.6 ± 3.32 µM | 0.19 | 1210 ± 50 nM | 0.27 | 97.7 ± 1.08% | 4 µg/mL (≈ 9.84 µM) | 8 µg/mL (≈ 19.7 µM) | 8 µg/mL (≈ 19.7 µM) | 128 µg/mL (≈ 315 µM) | 128 µg/mL (≈ 315 µM) | 32 µg/mL (≈ 78.7 µM) | 4390 ± 550 nM
COc1ccc2nccc(CCN3CCC(NCc4ccc(C(N)=O)cc4)CC3)c2n1 [Compound 17] | 0.25 | > 100 µM |  | 1150 ± 30 nM | 0.26 | 97.8 ± 2.21% | 4 µg/mL (≈ 9.53 µM) | 8 µg/mL (≈ 19.1 µM) | > 128 µg/mL | > 128 µg/mL | 128 µg/mL (≈ 305 µM) | 128 µg/mL (≈ 305 µM) | 1820 ± 110 nM
COc1ccc2nccc(CCN3CCC(NCc4ccc(N(C)C)cc4)CC3)c2n1 [Compound 18] | 0.32 | 11.9 ± 0.83 µM | 0.22 | > 100000 nM |  | 94.2 ± 1.33% | 0.5 µg/mL (≈ 1.19 µM) | 0.5 µg/mL (≈ 1.19 µM) | 0.25 µg/mL (≈ 0.596 µM) | 8 µg/mL (≈ 19.1 µM) | 8 µg/mL (≈ 19.1 µM) | 4 µg/mL (≈ 9.53 µM) | 
COc1ccc2nccc(CCN3CCC(NCc4ccc(OC(F)F)c(OC)c4)CC3)c2n1 [Compound 19, N-(4-(Difluoromethoxy)-3-methoxybenzyl)-1-(2-(6-methoxy-1,5-naphthyridin-4-yl)ethyl)piperidin-4-amine] | 0.26 | 3.9 ± 0.06 µM | 0.22 | 100 ± 10 nM | 0.28 | 96.4 ± 2.3% | 2 µg/mL (≈ 4.23 µM) | 2 µg/mL (≈ 4.23 µM) | < 1 µg/mL | 4 µg/mL (≈ 8.46 µM) | 8 µg/mL (≈ 16.9 µM) | 2 µg/mL (≈ 4.23 µM) | 350 ± 30 nM
COc1ccc2nccc(CCN3CCC(NCc4ccc(OC(F)F)c(O)c4)CC3)c2n1 [Compound 20, 2-(Difluoromethoxy)-5-((1-(2-(6-methoxy-1,5-naphthyridin-4-yl)ethyl)piperidin-4-ylamino)methyl)phenol] | 0.27 | 4.41 ± 0.16 µM | 0.22 | 60 nM | 0.30 | 94.8% | 0.5 µg/mL (≈ 1.09 µM) | 1 µg/mL (≈ 2.18 µM) | 2 µg/mL (≈ 4.36 µM) | 4 µg/mL (≈ 8.72 µM) | 4 µg/mL (≈ 8.72 µM) | 0.015 µg/mL (≈ 0.0327 µM) | 330 ± 20 nM
COc1ccc2nccc(CCN3CCC(NCc4ccc(C(F)(F)F)nc4)CC3)c2n1 [Compound 21, 1-(2-(6-Methoxy-1,5-naphthyridin-4-yl)ethyl)-N-((6-(trifluoromethyl)pyridin-3-yl)methyl)piperidin-4-amine] | 0.29 | 6.91 ± 1.62 µM | 0.22 | > 100000 nM |  | 95.5 ± 2.39% | 1 µg/mL (≈ 2.24 µM) | 0.5 µg/mL (≈ 1.12 µM) | 4 µg/mL (≈ 8.98 µM) | 8 µg/mL (≈ 18 µM) | 16 µg/mL (≈ 35.9 µM) | 128 µg/mL (≈ 287 µM) | 160 ± 20 nM
COc1ccc(CNC2CCN(CCc3ccnc4ccc(OC)nc34)CC2)cn1 [Compound 22, 1-(2-(6-Methoxy-1,5-naphthyridin-4-yl)ethyl)-N-((6-methoxypyridin-3-yl)methyl)piperidin-4-amine] | 0.30 | 7.24 ± 0.34 µM | 0.23 | > 100000 nM |  | 97 ± 6.94% | 1 µg/mL (≈ 2.45 µM) | 2 µg/mL (≈ 4.91 µM) | 1 µg/mL (≈ 2.45 µM) | 8 µg/mL (≈ 19.6 µM) | 4 µg/mL (≈ 9.82 µM) | 2 µg/mL (≈ 4.91 µM) | 340 ± 50 nM
